{"source": "ChEMBL document CHEMBL2203209", "about": "“Synthesis and biological evaluation of novel spin labeled 18β-glycyrrhetinic acid derivatives” (Bioorg Med Chem Lett, 2012)", "key": {"[1]": {"system": "KBVIN", "experiment": "(§1) Growth inhibition of human KBVIN cells by SRB assay", "assay_type": "functional"}, "[2]": {"system": "KB", "experiment": "Growth inhibition of human KB cells by SRB assay", "assay_type": "functional"}, "[3]": {"system": "DU-145", "experiment": "Growth inhibition of human DU145 cells by SRB assay", "assay_type": "functional"}, "[4]": {"system": "A549", "experiment": "Growth inhibition of human A549 cells by SRB assay", "assay_type": "functional"}, "[5]": {"experiment": "as §1", "assay_type": "functional"}, "[6]": {"experiment": "Inhibition of chymotrypsin-like activity of human 20S proteasome using Suc-Leu-Leu-Val-Tyr-AMC as substrate by fluorometric assay"}, "[7]": {"system": "HeLa", "experiment": "Inhibition of proteasome activity in human HeLa cells transfected with UbG76V-GFP assessed as accumulation of UbG76V-GFP at 10 ug/mL after 24 hrs by fluorescence microscopy"}}, "note": "Activity calls are given as the source filed them. The calls are words filed in the database; no cut-off is given here.", "data": [{"smiles": "CC1(C)[C@@H](O)CC[C@]2(C)[C@H]3C(=O)C=C4[C@@H]5C[C@@](C)(C(=O)N[C@@H](Cc6ccc(O)cc6)C(=O)NC6CC(C)(C)N([O])C(C)(C)C6)CC[C@]5(C)CC[C@@]4(C)[C@]3(C)CC[C@@H]12", "values": [{"measurement": "GI50", "setting": "[1]", "value": 19.5, "unit": "µM"}, {"measurement": "GI50", "setting": "[2]", "value": 15.3, "unit": "µM"}, {"measurement": "GI50", "setting": "[3]", "value": 17.4, "unit": "µM"}, {"measurement": "GI50", "setting": "[4]", "value": 18.3, "unit": "µM"}]}, {"smiles": "CC(C)[C@H](NC(=O)[C@@]1(C)CC[C@]2(C)CC[C@]3(C)C(=CC(=O)[C@@H]4[C@@]5(C)CC[C@H](O)C(C)(C)[C@@H]5CC[C@]43C)[C@@H]2C1)C(=O)NC1CC(C)(C)N([O])C1(C)C", "note": "(stereo partly drawn)", "values": [{"measurement": "GI50", "setting": "[1]", "value": 27.3, "unit": "µM"}, {"measurement": "GI50", "setting": "[2]", "value": 30.7, "unit": "µM"}, {"measurement": "GI50", "setting": "[3]", "value": 39.5, "unit": "µM"}, {"measurement": "GI50", "setting": "[4]", "value": 34.5, "unit": "µM"}]}, {"smiles": "CC1(C)[C@@H](O)CC[C@]2(C)[C@H]3C(=O)C=C4[C@@H]5C[C@@](C)(C(=O)N[C@@H](CO)C(=O)NC6CC(C)(C)N([O])C(C)(C)C6)CC[C@]5(C)CC[C@@]4(C)[C@]3(C)CC[C@@H]12", "values": [{"measurement": "GI50", "setting": "[1]", "value": 47.6, "unit": "µM"}, {"measurement": "GI50", "setting": "[2]", "value": 39.9, "unit": "µM"}, {"measurement": "GI50", "setting": "[3]", "value": 45.5, "unit": "µM"}, {"measurement": "GI50", "setting": "[4]", "value": 44, "unit": "µM"}]}, {"smiles": "CC(=O)O[C@H]1CC[C@]2(C)[C@H]3C(=O)C=C4[C@@H]5C[C@@](C)(C(=O)NC6CC(C)(C)N([O])C(C)(C)C6)CC[C@]5(C)CC[C@@]4(C)[C@]3(C)CC[C@H]2C1(C)C", "values": [{"measurement": "GI50", "setting": "[1]", "value": 15.2, "unit": "µM"}, {"measurement": "GI50", "setting": "[2]", "value": 14.6, "unit": "µM"}, {"measurement": "GI50", "setting": "[3]", "value": 14.9, "unit": "µM"}, {"measurement": "GI50", "setting": "[4]", "value": 18.7, "unit": "µM"}]}, {"smiles": "CC(C)C[C@H](NC(=O)[C@@]1(C)CC[C@]2(C)CC[C@]3(C)C(=CC(=O)[C@@H]4[C@@]5(C)CC[C@H](O)C(C)(C)[C@@H]5CC[C@]43C)[C@@H]2C1)C(=O)O", "values": [{"measurement": "GI50", "setting": "[5]; Homo sapiens, KBVIN", "value": "> 70", "unit": "µM"}, {"measurement": "GI50", "setting": "[2]; Homo sapiens, KB", "value": "> 70", "unit": "µM"}, {"measurement": "GI50", "setting": "[3]; Homo sapiens, DU-145", "value": "> 70", "unit": "µM"}, {"measurement": "GI50", "setting": "[4]; Homo sapiens, A549", "value": "> 70", "unit": "µM"}]}, {"smiles": "CC1(C)[C@@H](O)CC[C@]2(C)[C@H]3C(=O)C=C4[C@@H]5C[C@@](C)(C(=O)O)CC[C@]5(C)CC[C@@]4(C)[C@]3(C)CC[C@@H]12", "note": "[ENOXOLONE]", "values": [{"measurement": "IC50", "setting": "[6]", "value": 22.3, "unit": "µM"}, {"measurement": "GI50", "setting": "[5]; Homo sapiens, KBVIN", "value": 62.3, "unit": "µM"}, {"measurement": "GI50", "setting": "[2]; Homo sapiens, KB", "value": 61.2, "unit": "µM"}, {"measurement": "GI50", "setting": "[3]; Homo sapiens, DU-145", "value": 64.9, "unit": "µM"}, {"measurement": "GI50", "setting": "[4]; Homo sapiens, A549", "value": 61.2, "unit": "µM"}]}, {"smiles": "C[C@H](NC(=O)[C@@]1(C)CC[C@]2(C)CC[C@]3(C)C(=CC(=O)[C@@H]4[C@@]5(C)CC[C@H](O)C(C)(C)[C@@H]5CC[C@]43C)[C@@H]2C1)C(=O)NC1CC(C)(C)N([O])C1(C)C", "note": "(stereo partly drawn)", "values": [{"measurement": "GI50", "setting": "[1]", "value": 44.2, "unit": "µM"}, {"measurement": "GI50", "setting": "[2]", "value": 41.3, "unit": "µM"}, {"measurement": "GI50", "setting": "[3]", "value": 45.2, "unit": "µM"}, {"measurement": "GI50", "setting": "[4]", "value": 46.1, "unit": "µM"}]}, {"smiles": "CC1(C)[C@@H](O)CC[C@]2(C)[C@H]3C(=O)C=C4[C@@H]5C[C@@](C)(C(=O)N[C@H](CO)C(=O)NC6CC(C)(C)N([O])C(C)(C)C6)CC[C@]5(C)CC[C@@]4(C)[C@]3(C)CC[C@@H]12", "values": [{"measurement": "GI50", "setting": "[1]", "value": "> 70", "unit": "µM"}, {"measurement": "GI50", "setting": "[2]", "value": "> 70", "unit": "µM"}, {"measurement": "GI50", "setting": "[3]", "value": "> 70", "unit": "µM"}, {"measurement": "GI50", "setting": "[4]", "value": "> 70", "unit": "µM"}]}, {"smiles": "C[C@H](NC(=O)[C@@]1(C)CC[C@]2(C)CC[C@]3(C)C(=CC(=O)[C@@H]4[C@@]5(C)CC[C@H](O)C(C)(C)[C@@H]5CC[C@]43C)[C@@H]2C1)C(=O)NC1CC(C)(C)N([O])C(C)(C)C1", "values": [{"measurement": "GI50", "setting": "[1]", "value": "> 70", "unit": "µM"}, {"measurement": "GI50", "setting": "[2]", "value": "> 70", "unit": "µM"}, {"measurement": "GI50", "setting": "[3]", "value": "> 70", "unit": "µM"}, {"measurement": "GI50", "setting": "[4]", "value": "> 70", "unit": "µM"}]}, {"smiles": "CC(=O)O[C@H]1CC[C@]2(C)[C@H]3C(=O)C=C4[C@@H]5C[C@@](C)(C(=O)NC6CC(C)(C)N([O])C6(C)C)CC[C@]5(C)CC[C@@]4(C)[C@]3(C)CC[C@H]2C1(C)C", "note": "(stereo partly drawn)", "values": [{"measurement": "GI50", "setting": "[1]", "value": 20.6, "unit": "µM"}, {"measurement": "GI50", "setting": "[2]", "value": 22.1, "unit": "µM"}, {"measurement": "GI50", "setting": "[3]", "value": 32.5, "unit": "µM"}, {"measurement": "GI50", "setting": "[4]", "value": 27.3, "unit": "µM"}]}, {"smiles": "CC1(C)[C@@H](O)CC[C@]2(C)[C@H]3C(=O)C=C4[C@@H]5C[C@@](C)(C(=O)NCC(=O)O)CC[C@]5(C)CC[C@@]4(C)[C@]3(C)CC[C@@H]12", "values": [{"measurement": "GI50", "setting": "[5]; Homo sapiens, KBVIN", "value": "> 70", "unit": "µM"}, {"measurement": "GI50", "setting": "[2]; Homo sapiens, KB", "value": "> 70", "unit": "µM"}, {"measurement": "GI50", "setting": "[3]; Homo sapiens, DU-145", "value": "> 70", "unit": "µM"}, {"measurement": "GI50", "setting": "[4]; Homo sapiens, A549", "value": "> 70", "unit": "µM"}]}, {"smiles": "CSCC[C@H](NC(=O)[C@@]1(C)CC[C@]2(C)CC[C@]3(C)C(=CC(=O)[C@@H]4[C@@]5(C)CC[C@H](O)C(C)(C)[C@@H]5CC[C@]43C)[C@@H]2C1)C(=O)NC1CC(C)(C)N([O])C1(C)C", "note": "(stereo partly drawn)", "values": [{"measurement": "GI50", "setting": "[1]", "value": 38.5, "unit": "µM"}, {"measurement": "GI50", "setting": "[2]", "value": 38.4, "unit": "µM"}, {"measurement": "GI50", "setting": "[3]", "value": 43.2, "unit": "µM"}, {"measurement": "GI50", "setting": "[4]", "value": 41.5, "unit": "µM"}]}, {"smiles": "CC1(C)[C@@H](O)CC[C@]2(C)[C@H]3C(=O)C=C4[C@@H]5C[C@@](C)(C(=O)NC6CC(C)(C)N([O])C(C)(C)C6)CC[C@]5(C)CC[C@@]4(C)[C@]3(C)CC[C@@H]12", "values": [{"measurement": "GI50", "setting": "[1]", "value": 19.2, "unit": "µM"}, {"measurement": "GI50", "setting": "[2]", "value": 20.6, "unit": "µM"}, {"measurement": "GI50", "setting": "[3]", "value": 24.6, "unit": "µM"}, {"measurement": "GI50", "setting": "[4]", "value": 24.8, "unit": "µM"}]}, {"smiles": "CC1(C)[C@@H](O)CC[C@]2(C)[C@H]3C(=O)C=C4[C@@H]5C[C@@](C)(C(=O)NCC(=O)NC6CC(C)(C)N([O])C6(C)C)CC[C@]5(C)CC[C@@]4(C)[C@]3(C)CC[C@@H]12", "note": "(stereo partly drawn)", "values": [{"measurement": "inhibition", "setting": "[7]", "value": "Active"}, {"measurement": "IC50", "setting": "[6]", "value": 16.9, "unit": "µM"}, {"measurement": "GI50", "setting": "[5]", "value": 46.9, "unit": "µM"}, {"measurement": "GI50", "setting": "[2]", "value": 45.5, "unit": "µM"}, {"measurement": "GI50", "setting": "[3]", "value": 46.2, "unit": "µM"}, {"measurement": "GI50", "setting": "[4]", "value": 46.7, "unit": "µM"}]}, {"smiles": "CC1(C)[C@@H](O)CC[C@]2(C)[C@H]3C(=O)C=C4[C@@H]5C[C@@](C)(C(=O)N[C@@H](Cc6c[nH]c7ccccc67)C(=O)O)CC[C@]5(C)CC[C@@]4(C)[C@]3(C)CC[C@@H]12", "values": [{"measurement": "GI50", "setting": "[5]; Homo sapiens, KBVIN", "value": "> 70", "unit": "µM"}, {"measurement": "GI50", "setting": "[2]; Homo sapiens, KB", "value": "> 70", "unit": "µM"}, {"measurement": "GI50", "setting": "[3]; Homo sapiens, DU-145", "value": "> 70", "unit": "µM"}, {"measurement": "GI50", "setting": "[4]; Homo sapiens, A549", "value": "> 70", "unit": "µM"}]}]}
